US6743795B1, “3-nitropyridine derivaives and the pharmaceutical compositions containing said derivatives” (Dong Wha Pharm. Ind. Co. Ltd., priority 1999, dated 2004)

Tests used:
HBV polymerase = target: T1, HBV polymerase (Hepatitis B virus genotype A2 subtype adw2, UniProt P03159); assay: In vitro reverse transcription activity of HBV polymerase (ELISA-type, DIG/biotin nucleotides); type: biochemical; conditions: for inhibition at 0.01 µg/mL / inhibition at 0.1 µg/mL / inhibition at 1 µg/mL: read-out: Inhibition activity on HBV-RT (%)
T1 construct: made in house; host or cells: E. coli
Method: <Experiment 1> Inhibitory Effect on the In Vitro Activities of HBV Polymerase in Reverse Transcription
The following in vitro experiment was performed to determine the effect of the compounds of formula 1 on the activity of HBV polymerase during reverse transcription.
The present inventors submitted application for a patent concerning HBV polymerase genetically expressed in and separated from E.coli, the process of its preparation, and the method to measure the enzyme activities (KR 94-3918, KR 96-33998). In the present experiments HBV polymerase was used which had been expressed in E. coli as stated above.
The method used in the present invention to measure in vitro reverse transcribing activities of HBV polymerase is as follows. Basic principles are the same as for ELISA. Nucleotides with biotin or digoxigenin group attached are included as substrates and anti-DIG antibodies attached to peroxidase enzyme recognize the polymerized substrates.
To the wells coated with streptavidin, 20 μl of HBV polymerase, 20 μl of reaction mixture (10 μM each of DIG-UTP and Biotin-UTP, 46 mM Tris-HCl, 266 mM KCl, 27.5 mM MgCl2, 9.2 mM DTT substrate/primer nybrid), and 20 μl of test compound (added to 1, 0.1, and 0.01 μg/ml) were added and allowed to react at 22° C. for 15 hrs. During this reaction, HBV polymerase catalyzes DNA synthesis and digoxigenin and biotin attached to nucleotides form bonds with streptavidin coated on the bottom of wells. When the reaction was done, each well was washed with 250 μl of cleaning buffer (pH 7.0) for 30 seconds, which was repeated five times to remove remaining impurities. 200 μl of anti-DIG-POD antibody was added to each well and allowed to react for 1 hr at 37° C., and the wells were washed with cleaning buffer to remove impurities. 200 μl each of ABTS™, a substrate of peroxidase, was then added and allowed to react at room temperature for 30 min. Absorbance was measured at 405 nm using ELISA reader.
The percentage of reduction in HBV polymerase activities for reverse transcription was calculated using the group without test compound as a control and the results are shown in Table 3.

HBV = assay: Proliferation of HBV in HBV producing cell line HepG 2.2.15 (competitive PCR of culture supernatant); type: cell-based, Hepatitis B virus; conditions: HepG 2.2.15, one week; for inhibition at 0.01 µg/mL / inhibition at 0.1 µg/mL / inhibition at 1 µg/mL: Hepatitis B virus, HepG2.2.15, 168 h, read-out: Inhibitory effect on the HBV proliferation: Inhibition activity on HBV-RT (%)
Method: <Experiment 2> Inhibitory Effect on the Proliferation of HBV in HBV Producing Cell Line
The following experiment was performed to determine inhibitory effects of compounds of formula 1 on the proliferation of HBV producing cell line.
To test for antiviral effect, replication and proliferation of HBV were measured in HepG 2.2.15, a human liver cancer cell line.
The cell concentration was adjusted to 1×10^5 cells/ml and 1 ml was added to each well of a 24-well cell culture plate, which was then kept in a culture box for 3-4 days at 37° C. under 5% CO2 until cells grew sufficiently, changing culture medium everyday. When the cells matured sufficiently, the test compounds were added to the final concentrations of 0.01, 0.1, and 1 μg/ml. One week after the addition of test compounds, the culture solution was centrifuged at 5,000 rpm for 10 min. 25 μl of supernatant was transferred to a new tube and 5 μl of lysis solution [0.54N NaOH, 0.06% NP40] was added to each tube. After keeping the tube at 37° C. for 1 hr, 30 μl of neutralizing solution [0.09N HCl 0.1MTris-HCl, pH7.4] was added as a reaction solution for competitive polymerase chain reaction (PCR).
PCR was performed using genetic sequence of HBV core protein as a matrix. PCR reaction was carried out by adding 1 unit of Taq polymerase enzyme to 25 pmol of each primer, 250 μM dNTP, 5 μl of PCR reaction solution [0.54N NaOH, 0. 06% NP40, 0.09N HCl, 0.1M Tris-HCl, pH 7.4].
DNA polymerized by PCR was electrophoresed on Agarose gel and quantitatively analyzed using an image analyzer (Gel Doc 1000, Bio-Rad) in order to evaluate the effect of compounds of the present invention on the reduction of HBV proliferation.
3TC (lamivudine) was used as a positive control at the same concentrations as those of the test compounds. The percentage of reduction in HBV proliferation was calculated using the group without test compound as a control and the results are represented in Table 4.

[1] = target: T2, HIV reverse transcriptase (Human immunodeficiency virus type 1 group M subtype B, UniProt P03366); assay: In vitro HIV reverse transcriptase activity (non-radioactive RT assay kit); type: biochemical
T2 construct: purchased Boehringer Mannheim
Method: <Experiment 3> Inhibitory Effect on the In Vitro HIV Enzyme Activities in Reverse Transcription
The following in vitro experiments were done to determine the effect of compounds of formula 1 on the reduction of HIV enzyme activities in reverse transcription.
Non-radioactive reverse transcriptase assay kit (Boehringer Mannheim) was used in the measurement of in vitro transcriptase activities. 20 μl (40 ng) of HIV transcriptase and 20 μl of reaction mixture containing matrix-primer hybrid poly(A)oligo(dT)15, DIG(digoxigenin)-dUTP, biotin-dUTP, and TTP were added to wells coated with streptavidin. Test compounds were also added at the final concentrations of 0.1 and 1 μg/ml and allowed to react at 37° C. for 1 hr. At this time, DNA is formed from RNA by the action of HIV reverse transcriptase, forming bonds with streptavidin coated on the bottom of wells because of digoxigenin and biotin moieties attached to nucleotides.
When the reaction was completed, each well was washed with 250 μl of cleaning buffer (pH7.0) for 30sec. five times to remove remaining impurities. 200 μl of anti-DIG-POD […] was added to each well, allowed to react at 37° C. for 1 hr and washed as above to remove impurities. 200 μl of ABTS™, a substrate for peroxidase, was added to each well and allowed to react at room temperature for 30 min. Absorbance at 405 nm was then read for each solution using ELISA reader and used for quantitative determination of inhibitory effect on the HIV transcriptase activities. The percentage of reduction in the activities of HIV reverse transcriptase was calculated using the group without test compound as control and the results are represented in Table 5.

T1 sequence (P03159 whole entry): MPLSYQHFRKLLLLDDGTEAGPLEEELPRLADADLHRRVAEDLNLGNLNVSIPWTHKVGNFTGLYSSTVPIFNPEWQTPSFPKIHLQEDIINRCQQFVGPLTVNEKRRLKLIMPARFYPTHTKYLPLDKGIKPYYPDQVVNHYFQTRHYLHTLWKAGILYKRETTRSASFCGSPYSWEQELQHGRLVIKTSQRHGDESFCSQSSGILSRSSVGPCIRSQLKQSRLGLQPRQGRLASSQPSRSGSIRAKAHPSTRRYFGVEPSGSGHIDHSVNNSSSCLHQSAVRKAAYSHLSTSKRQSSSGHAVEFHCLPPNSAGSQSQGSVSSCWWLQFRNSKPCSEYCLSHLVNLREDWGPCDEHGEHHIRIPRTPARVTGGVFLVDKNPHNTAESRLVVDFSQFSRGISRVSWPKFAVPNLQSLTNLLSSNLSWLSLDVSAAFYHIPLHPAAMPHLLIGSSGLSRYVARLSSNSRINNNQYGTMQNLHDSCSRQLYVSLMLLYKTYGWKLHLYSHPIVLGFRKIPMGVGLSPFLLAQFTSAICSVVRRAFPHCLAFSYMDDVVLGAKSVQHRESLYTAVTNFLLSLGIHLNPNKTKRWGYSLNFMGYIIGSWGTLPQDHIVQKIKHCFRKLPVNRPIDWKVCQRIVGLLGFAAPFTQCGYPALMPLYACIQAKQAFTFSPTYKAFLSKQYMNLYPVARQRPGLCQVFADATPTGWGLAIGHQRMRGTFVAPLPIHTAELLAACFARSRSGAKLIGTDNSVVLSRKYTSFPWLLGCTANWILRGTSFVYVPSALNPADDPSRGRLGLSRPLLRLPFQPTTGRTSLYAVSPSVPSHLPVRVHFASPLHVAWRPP

SMILES	melting point	inhibition at 0.01 µg/mL (HBV polymerase; 0.01 μg/ml test compound)	inhibition at 0.1 µg/mL (HBV polymerase; 0.1 μg/ml test compound)	inhibition at 1 µg/mL (HBV polymerase; 1 μg/ml test compound)	inhibition at 0.01 µg/mL (HBV; 0.01 μg/ml)	inhibition at 0.1 µg/mL (HBV; 0.1 μg/ml)	inhibition at 1 µg/mL (HBV; 1 μg/ml)	Inhibitory effect on the activities of HIV reverse transcriptase: Inhibition activity on HIV-RT (%) ([1]; 0.1 μg/ml test compound)	Inhibitory effect on the activities of HIV reverse transcriptase: Inhibition activity on HIV-RT (%) ([1]; 1 μg/ml test compound)	Inhibition activity on HBV-RT (%) (HBV polymerase; 0.01 μg/ml test compound)	Inhibition activity on HBV-RT (%) (HBV polymerase; 0.1 μg/ml test compound)	Inhibition activity on HBV-RT (%) (HBV polymerase; 1 μg/ml test compound)	Inhibitory effect on the HBV proliferation: Inhibition activity on HBV-RT (%) (HBV; 0.1 μg/ml)	Inhibitory effect on the HBV proliferation: Inhibition activity on HBV-RT (%) (HBV; 1 μg/ml)	Inhibitory effect on the HBV proliferation: Inhibition activity on HBV-RT (%) (HBV; 0.01 μg/ml)
CN1CCN(c2ccc([N+](=O)[O-])c(Nc3ccc4cn[nH]c4c3)n2)CC1 (hydrate or solvate) [Example 26, 2-(1H-6-indazolylamino)-6-(4-methyl-1-piperazinyl)-3-nitropyridine]	253 °C (dec.)														
COc1ccc([N+](=O)[O-])c(Nc2ccc3[nH]ncc3c2)n1 [Example 1, 2-(1H-5-indazolylamino)-6-methoxy-3-nitropyridine]		30%	54%	85%	20%	45%	82%	35%	75%						
CNc1ccc([N+](=O)[O-])c(Nc2ccc3cn[nH]c3c2)n1 [Example 4, 2-(1H-6-indazolylamino)-6-methyl amino-3-nitropyridine]								51%	70%	26%	51%	60%	40%	58%	
CC(C)Nc1ccc([N+](=O)[O-])c(Nc2ccc3[nH]ncc3c2)n1 [Example 5, 2-(1H-5-indazolylamino)-6-isopropyl amino-3-nitropyridine]								20%	55%	53%	87%	96%	81%	94%	41%
CC(C)CNc1ccc([N+](=O)[O-])c(Nc2ccc3[nH]ncc3c2)n1 [Example 7, 2-(1H-5-indazolylamino)-6-isobuthyl amino-3-nitropyridine]								45%	72%	47%	80%	95%	75%	93%	30%
CN(C)CCNc1ccc([N+](=O)[O-])c(Nc2ccc3cn[nH]c3c2)n1 [Example 16, 6-[2-(dimethylamino)ethylamino]-2-(1H-6-indazolylamino)-3-nitropyridine]		38%	55%	80%				51%	75%						
CN1CCN(Nc2ccc([N+](=O)[O-])c(Nc3ccc4cn[nH]c4c3)n2)CC1 [Example 18, 2-(1H-6-indazolylamino)-6-(4-methyl-1-piperazinyl)amino-3-nitropyridine]	260 °C (dec.)	25%	43%	70%											
O=[N+]([O-])c1ccc(NCc2ccncc2)nc1Nc1ccc2[nH]ncc2c1 [Example 21, 2-(1H-5-indazolylamino)-3-nitro-6-(4-pyridyl)methylaminopyridine]		45%	65%	94%	33%	50%	90%	39%	72%						
O=[N+]([O-])c1ccc(NCc2ccccn2)nc1Nc1ccc2cn[nH]c2c1 [Example 22, 2-(1H-6-indazolylamino)-3-nitro-6-(2-pyridyl)methylaminopyridine]	256 °C (dec.)	49%	60%	81%											
O=[N+]([O-])c1ccc(N2CCNCC2)nc1Nc1ccc2cn[nH]c2c1 [Example 24, 2-(1H-6-indazolylamino)-3-nitro-6-(1-piperazinyl)pyridine]	268 °C (dec.)	20%	43%	62%											
CN1CCN(c2ccc([N+](=O)[O-])c(Nc3ccc4[nH]ncc4c3)n2)CC1 [Example 25, 2-(1H-5-indazolylamino)-6-(4-methyl-1-piperazinyl)-3-nitropyridine]		35%	54%	88%	25%	46%	83%								
O=[N+]([O-])c1ccc(N2CCN(CCO)CC2)nc1Nc1ccc2cn[nH]c2c1 [Example 27, 6-[4-(2-hydroxyethyl)-1-piperazinyl]-2-(1H-6-indazolylamino)-3-nitropyridine]		15%	38%	60%				45%	81%						
